In patent publication US7956053B2, “Inhibitors of tyrosine kinases” (Novartis AG, priority 2002, dated 2011):

How the values were obtained:
Format in all cases: biochemical
[1] = target: T1, c-Abl (Homo sapiens, UniProt P00519); test: Test for activity against c-Abl protein tyrosine kinase (filter binding assay)
T1 construct: The His-tagged kinase domain of c-Abl is cloned and expressed in the baculovirus/Sf9 system; His; made in house; host or cells: baculovirus/Sf9
T1 sequence (P00519 242-493 limits assumed): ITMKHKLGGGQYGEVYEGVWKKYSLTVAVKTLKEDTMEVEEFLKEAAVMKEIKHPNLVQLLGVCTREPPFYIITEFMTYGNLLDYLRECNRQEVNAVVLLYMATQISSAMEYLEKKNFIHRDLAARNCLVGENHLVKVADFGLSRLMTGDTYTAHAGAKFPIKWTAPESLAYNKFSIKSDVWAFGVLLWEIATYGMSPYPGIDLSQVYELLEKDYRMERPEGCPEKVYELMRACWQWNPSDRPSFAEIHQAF
How it was run: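 His-tagged c-Abl kinase domain expressed in baculovirus/Sf9 cells; 50 ng enzyme with 30 μg/mL poly-AEKY, 5 μM ATP plus [γ-33P]-ATP, pH 7.5 Tris, 1% DMSO. Stopped with EDTA, captured on PVDF membrane and counted by scintillation. Values are % inhibition at 10 μM.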

[2] = target: KDR (Homo sapiens, UniProt P35968); test: Enzymatic KDR in vitro inhibition
How it was run: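 KDR kinase inhibition was measured in vitro with a radiometric filter-binding method. The kinase was incubated for 10 minutes at room temperature with poly(Glu,Tyr) 4:1 and 8 μM [^33P]-ATP (0.2 μCi) in 20 mM Tris.HCl pH 7.5 buffer with MnCl2, MgCl2, vanadate, PEG 20000, dithiothreitol and 1% DMSO. EDTA stopped the reaction, aliquots were spotted onto PVDF membranes, and after acid and ethanol washes radioactivity was counted. Results are given as % inhibition at 10 μM.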

[3] = target: T2, Flt3 (Homo sapiens, UniProt P36888); test: Enzymatic Flt3 in vitro inhibition; settings: % inhibition at 10 μM
T2 sequence (P36888 27-993): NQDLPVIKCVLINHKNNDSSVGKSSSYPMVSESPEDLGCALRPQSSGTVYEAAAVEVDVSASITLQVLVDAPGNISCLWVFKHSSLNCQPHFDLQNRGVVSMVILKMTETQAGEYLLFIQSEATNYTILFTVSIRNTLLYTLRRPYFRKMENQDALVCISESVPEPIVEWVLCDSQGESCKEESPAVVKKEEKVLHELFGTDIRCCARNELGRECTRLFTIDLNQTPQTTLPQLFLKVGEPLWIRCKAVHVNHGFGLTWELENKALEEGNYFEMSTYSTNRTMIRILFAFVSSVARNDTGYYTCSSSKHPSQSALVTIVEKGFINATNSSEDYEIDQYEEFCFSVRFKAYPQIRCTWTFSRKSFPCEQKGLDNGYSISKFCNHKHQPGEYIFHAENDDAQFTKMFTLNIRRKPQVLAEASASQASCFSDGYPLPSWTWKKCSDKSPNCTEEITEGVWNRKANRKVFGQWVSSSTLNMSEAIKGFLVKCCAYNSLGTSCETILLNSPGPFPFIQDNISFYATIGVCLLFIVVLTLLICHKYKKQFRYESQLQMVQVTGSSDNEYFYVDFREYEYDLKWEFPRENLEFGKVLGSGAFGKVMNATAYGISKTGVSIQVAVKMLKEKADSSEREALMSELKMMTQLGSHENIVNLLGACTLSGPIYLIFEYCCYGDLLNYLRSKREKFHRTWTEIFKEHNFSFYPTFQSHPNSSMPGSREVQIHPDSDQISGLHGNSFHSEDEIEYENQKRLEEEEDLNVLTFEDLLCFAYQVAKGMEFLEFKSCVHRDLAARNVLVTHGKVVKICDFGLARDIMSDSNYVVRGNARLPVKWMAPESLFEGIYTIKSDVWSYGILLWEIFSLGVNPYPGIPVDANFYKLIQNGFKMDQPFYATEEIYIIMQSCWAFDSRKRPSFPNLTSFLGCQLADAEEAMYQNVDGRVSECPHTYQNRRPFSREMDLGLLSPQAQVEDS
Description: Enzymatic (c-Abl, KDR, Flt3) in vitro inhibition data are presented as % inhibition at 10 μM. The measurements are made as described above in the general description.

KDR, sequence (P35968 20-1356): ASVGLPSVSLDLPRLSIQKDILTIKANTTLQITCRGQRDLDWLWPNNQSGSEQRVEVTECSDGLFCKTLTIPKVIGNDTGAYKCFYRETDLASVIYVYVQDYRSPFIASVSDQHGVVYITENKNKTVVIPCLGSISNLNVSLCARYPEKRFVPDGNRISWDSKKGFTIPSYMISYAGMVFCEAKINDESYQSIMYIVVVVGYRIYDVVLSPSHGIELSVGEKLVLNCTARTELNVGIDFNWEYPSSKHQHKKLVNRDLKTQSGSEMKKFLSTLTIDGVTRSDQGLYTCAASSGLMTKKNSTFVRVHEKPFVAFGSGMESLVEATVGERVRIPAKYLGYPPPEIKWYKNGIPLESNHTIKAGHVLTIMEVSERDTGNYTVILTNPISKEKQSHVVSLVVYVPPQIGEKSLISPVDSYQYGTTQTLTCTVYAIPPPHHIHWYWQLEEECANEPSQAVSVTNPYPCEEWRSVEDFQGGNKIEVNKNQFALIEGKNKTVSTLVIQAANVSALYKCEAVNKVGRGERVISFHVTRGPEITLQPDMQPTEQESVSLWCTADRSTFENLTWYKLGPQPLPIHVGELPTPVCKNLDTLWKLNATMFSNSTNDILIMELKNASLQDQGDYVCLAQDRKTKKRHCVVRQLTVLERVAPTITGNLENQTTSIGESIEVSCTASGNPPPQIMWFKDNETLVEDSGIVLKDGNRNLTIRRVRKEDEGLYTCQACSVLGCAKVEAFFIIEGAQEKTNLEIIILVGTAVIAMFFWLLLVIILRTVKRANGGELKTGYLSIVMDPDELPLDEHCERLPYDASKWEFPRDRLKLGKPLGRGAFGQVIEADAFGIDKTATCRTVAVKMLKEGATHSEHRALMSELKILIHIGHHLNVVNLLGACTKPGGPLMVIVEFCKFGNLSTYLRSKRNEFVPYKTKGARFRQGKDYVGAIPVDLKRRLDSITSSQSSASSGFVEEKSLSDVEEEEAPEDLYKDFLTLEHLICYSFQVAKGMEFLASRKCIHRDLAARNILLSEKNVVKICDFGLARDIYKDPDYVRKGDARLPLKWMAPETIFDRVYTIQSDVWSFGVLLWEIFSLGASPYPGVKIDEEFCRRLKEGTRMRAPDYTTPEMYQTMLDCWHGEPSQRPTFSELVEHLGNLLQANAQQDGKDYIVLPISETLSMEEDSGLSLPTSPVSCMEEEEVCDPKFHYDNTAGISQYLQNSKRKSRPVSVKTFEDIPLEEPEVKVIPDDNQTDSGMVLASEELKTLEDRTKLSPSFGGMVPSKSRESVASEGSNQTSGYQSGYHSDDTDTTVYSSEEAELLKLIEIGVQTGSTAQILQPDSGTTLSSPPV

- inhibition at 10 µM [1]: 98%
- inhibition at 10 µM [2]: 88%
- Flt3 %@10 μM [3]: 41%
SMILES: CCN(CC)c1cccc(NC(=O)c2ccc(C)c(Nc3nccc(-c4cccnc4)n3)c2)c1 [Example 67, N-[3-(Diethylamino)phenyl]-4-methyl-3-[[4-(3-pyridinyl)-2-Pyrimidinyl]amino]benzamide]
